Assays:
[1] = system: retinal vascular permeability; conditions: rats, cited from earlier work
[2] = system: prekallikrein (PK) activation by FXII; assay: PK activation by FXII in the presence of HK, fluorogenic kallikrein substrate; assay type: biochemical, human; conditions: for effect on kallikrein activation in vitro: PK activation by FXII in the presence of HK
Method: FIG. 2 is a line graph illustrating the effect of varying concentrations of C1-INH on PK activation by FXII in the presence of HK. Kallikrein activity was measured as cleavage of synthetic fluorogenic kallikrein substrate (0.4 mM) on a microplate reader at 37° C. at 15 minutes (means±s.e.m.; n=4).
FIG. 3 is line graph illustrating the effect of varying concentrations of anti-PK antibody on PK activation by FXII in the presence of HK (means±s.e.m. n=5-6).
The effects of C1-INH and anti-PK antibody on the kinetics of PK activation by factor XII (FXII) were monitored in vitro using a fluorescent kallikrein substrate. Fluorogenic kallikrein substrate (H-D-Val-Leu-Arg-AFC; Calbiochem) was used to quantify kallikrein enzymatic activity.

Q: For `CC(=O)Nc1nnc(S(N)(=O)=O)s1` [acetazolamide, reference compound], which “effect on increased retinal permeability induced by transplant of vitreous from patients with advanced diabetic retinopathy” value [1] is on record?
A: The value was “blocked”.

Q: Which “effect on kallikrein activation in vitro” value [2] does the source give for `O=C(O)O` [bicarbonate ion] here?
A: Its value is “Neither CA-I or bicarbonate ion affected”.

Q: Which “effect on kallikrein activation in vitro” value [2] does the source give for “CA-I: human erythrocyte CA-I (Sigma), carbonic anhydrase 1” here?
A: The value was “Neither CA-I or bicarbonate ion affected”.

Q: And the “effect of intravitreal injection on retinal vascular permeability” value ([1]; intravitreal)?
A: The value was “increased”.

B1: C1-INH: C1 inhibitor; binds covalently to the active site of FXII (protein, UniProt P05155 23-500, looked up)
Plasma protease C1 inhibitor: NPNATSSSSQDPESLQDRGEGKVATTVISKMLFVEPILEVSSLPTTNSTTNSATKITANTTDEPTTQPTTEPTTQPTIQPTQPTTQLPTDSPTQPTTGSFCPGPVTLCSDLESHSTEAVLGDALVDFSLKLYHAFSAMKKVETNMAFSPFSIASLLTQVLLGAGENTKTNLESILSYPKDFTCVHQALKGFTTKGVTSVSQIFHSPDLAIRDTFVNASRTLYSSSPRVLSNNSDANLELINTWVAKNTNNKISRLLDSLPSDTRLVLLNAIYLSAKWKTTFDPKKTRMEPFHFKNSVIKVPMMNSKKYPVAHFIDQTLKAKVGQLQLSHNLSLVILVPQNLKHRLEDMEQALSPSVFKAIMEKLEMSKFQPTLLTLPRIKVTTSQDMLSIMEKLEFFDFSYDLNLCGLTEDPDLQVSAMQHQTVLELTETGVEAAAASAISVARTLLVFEVQQPFLFVLWDQQHKFPVFMGRVYDPRA
Q: Which “effect on PK activation (kallikrein activity)” value ([2]; varying concentrations, FXII and HK present, fluorogenic kallikrein substrate 0.4 mM, 37° C., 15 minutes) does the source give for B1 here?
A: The value was “inhibited”.

Q: And the “effect on CA-1-induced retinal vascular permeability” value ([1]; intravitreal CA-1)?
A: Its value is “blocked”.

Source: patent US20100119512A1, “METHODS OF DIAGNOSING, TREATING, AND PREVENTING INCREASED VASCULAR PERMEABILITY” (Joslin Diabetes Center, priority 2007, published 2010)
